# Data reported in PubChem BioAssay (NCI).
#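 Dose response: 5 concentrations. Exposure: 48 h. Format: 96-well plates. Endpoint: linear interpolation; highest concentration if not reached. Abbreviation: GI50, concentration required for 50% inhibition of growth. The concentration for full growth arrest is given as TGI.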
# Experiments:
# Assay in all cases: inhibition of tumour cell growth, NCI panel, 48 h
# CCRF-CEM leukemia = system: CCRF-CEM leukemia
# HOP-92 NSCLC = system: HOP-92 NSCLC
# M14 melanoma = system: M14 melanoma
# NCI-H522 lung = system: NCI-H522 lung
# NCI/ADR-RES ovarian = system: NCI/ADR-RES ovarian
# RPMI-8226 leukemia = system: RPMI-8226 leukemia
# SF-295 CNS = system: SF-295 CNS
# SK-OV-3 ovarian = system: SK-OV-3 ovarian
# U251 CNS = system: U251 CNS
# UACC-257 melanoma = system: UACC-257 melanoma
Structure (SMILES),GI50 (CCRF-CEM leukemia),TGI (CCRF-CEM leukemia),GI50 (HOP-92 NSCLC),TGI (HOP-92 NSCLC),GI50 (M14 melanoma),TGI (M14 melanoma),GI50 (NCI-H522 lung),TGI (NCI-H522 lung),GI50 (NCI/ADR-RES ovarian),TGI (NCI/ADR-RES ovarian),GI50 (RPMI-8226 leukemia),TGI (RPMI-8226 leukemia),GI50 (SF-295 CNS),TGI (SF-295 CNS),GI50 (SK-OV-3 ovarian),TGI (SK-OV-3 ovarian),GI50 (U251 CNS),TGI (U251 CNS),GI50 (UACC-257 melanoma),TGI (UACC-257 melanoma)
CCOC(=O)c1c(NC(=O)c2ccccc2)sc2c3c(ccc12)OCN(C)C3,1.97 µM,5.75 µM,1.2 µM,2.68 µM,1.74 µM,3.29 µM,1.66 µM,3.62 µM,1.59 µM,3.32 µM,1.69 µM,3.87 µM,1.74 µM,3.23 µM,2.16 µM,4.79 µM,1.68 µM,3.4 µM,1.97 µM,3.85 µM
C/C(=N\n1c(O)c(C#N)cc(C#N)c1=O)c1ccncc1,> 100 µM,> 100 µM,> 100 µM,> 100 µM,> 100 µM,> 100 µM,> 100 µM,> 100 µM,> 100 µM,> 100 µM,> 100 µM,> 100 µM,> 100 µM,> 100 µM,> 100 µM,> 100 µM,> 100 µM,> 100 µM,> 100 µM,> 100 µM
OCc1ccc(N2CCc3cc(F)ccc3C2)cc1Cl,3.9 µM,28.9 µM,0.199 µM,6.36 µM,16.2 µM,30.7 µM,12.7 µM,25.9 µM,11.3 µM,33.7 µM,0.244 µM,22.2 µM,0.0449 µM,13.9 µM,3.85 µM,15.9 µM,0.0933 µM,14 µM,0.0197 µM,0.0723 µM
COc1ccc2nc(-c3ccccc3)cc(Nc3cccc(C(C)=O)c3)c2c1,> 100 µM,> 100 µM,15.2 µM,38.4 µM,5.11 µM,20.2 µM,31.6 µM,> 100 µM,4.89 µM,34.1 µM,33.2 µM,> 100 µM,12.7 µM,31.6 µM,19.7 µM,56.5 µM,1.96 µM,16.8 µM,18.3 µM,78.7 µM
O=C(Nc1ccccc1C(F)(F)F)c1ccc(NC2=C(Cl)C(=O)N(Cc3ccccc3)C2=O)cc1,2.95 µM,12.7 µM,11.3 µM,35.2 µM,51.6 µM,> 100 µM,40.3 µM,> 100 µM,39.3 µM,> 100 µM,8.4 µM,> 100 µM,31.8 µM,> 100 µM,57.7 µM,> 100 µM,23.5 µM,> 100 µM,28.7 µM,82.9 µM
O=C1c2cccnc2C(=O)c2c1c(C(=O)NCCn1ccnc1)c1ccccn21,6.12 µM,> 100 µM,9.28 µM,31.7 µM,1.91 µM,6.13 µM,1.82 µM,4.67 µM,27.4 µM,> 100 µM,5.95 µM,88.4 µM,2.66 µM,14 µM,8.88 µM,21.3 µM,2.96 µM,9.18 µM,2.06 µM,3.93 µM
N#Cc1ccccc1C#C/C=C\C#CC#C/C=C\C#Cc1ccccc1C#N,4.95 µM,> 100 µM,10.4 µM,> 100 µM,11.3 µM,35.5 µM,3.15 µM,14.9 µM,18.5 µM,68.2 µM,4.11 µM,> 100 µM,16.3 µM,53 µM,28.6 µM,> 100 µM,12.4 µM,47.1 µM,52.7 µM,> 100 µM
